Results published in patent US20120004235A1, “METHODS TO TREAT CANCER” (Rutgers, The State University of New Jersey, priority 2009, published 2012).

How the values were obtained:
[1] = system: RPMI-8226 Human Multiple Myeloma; test: Human tumor cell CFU assay (Test B); format: cell-based; details: Homo sapiens, RPMI-8226; colony formation in agar, continuous exposure 7-9 days
Experimental: For human tumor cell CFU assays, the cell lines which grow as monolayers, MDA-MB-231, HCT116, HT29, NCI-H460, KB3-1 and KBV-1 were grown in RPMI medium (Invitrogen/Gibco, Grand Island, N.Y.) supplemented with 5% fetal bovine serum (Invitrogen/Gibco, Grand Island, NY). The RPMI-8226 cell line grows in suspension.
For human tumor cell CFU assays, RPMI-8226 cells were grown in 0.35% agar in DMEM-F12 medium supplemented with 10% fetal bovine serum over a base layer of 0.5% agar in DMEM-F12 medium supplemented with 10% fetal bovine serum
For experiments, human tumor cells (1 103) were plated in 6-well plates in medium supplemented with 5% or 10% fetal bovine serum. The compounds were tested in concentrations over the range from 0.01 to 100 nanomolar in half-log intervals covering […] along with untreated control wells. In later experiments some cases the concentration ranges were refined to focus on the region of interest in the response curves. Each compound concentration was tested in duplicate wells. Cultures were exposed to the compounds continuously for 7-9 days at 37° C. in a humidified atmosphere of 5% carbon dioxide balance air. Each experiment was performed three independent times. Colonies were defined as clusters containing 30 or more cells.
The values were expressed as the mean values with lower and upper 95% confidence intervals in nanomolar concentrations.

[2] = system: Human H460 Non-Small Cell Lung Carcinoma Tumor Xenograft Model; test: Test D xenograft, Compound 2 free base; format: in vivo, nu/nu mice; details: 1.36 mg/kg/day IV, qod × 3 for 2 cycles
Experimental: (§1) The anti-tumor activity of Compound 2 (free base) was evaluated against a variety of human tumor xenograft models. A summary of the studies, including tumor type, dosing and administration, growth inhibition, and major findings is presented below.

[3] = system: Human SK-MEL-3 Melanoma Tumor Xenograft Model; test: Test D xenograft, Compound 2 free base; format: in vivo, nu/nu mice; details: qod × 3 for 2 cycles
Experimental: as §1

[4] = system: Human 786-0 Renal Cell Tumor Xenograft Model; test: Test D xenograft, Compound 2 free base; format: in vivo, nu/nu mice; details: qod × 3 for 2 cycles
[5] = In vitro metabolic stability (Example 22); format: in vitro ADME; details: in vitro in mouse, rat, dog, and human
Experimental: (§2) The in vitro and in vivo activity of compound 2 and two of its metabolites (compound 5 and compound 6) were explored and compared with the activity of camptothecin Top1 inhibitors. […] In human HCT-116 colon ca, HT-29 colon ca and NCI-H460 NSCLC cells the concentration response for compound 2, compound 5 and compound 6 were the same. […] Compound 2 was administered intravenously on a QODx3 schedule for 2 cycles.

[6] = In vitro partitioning into red blood cells (Example 22); format: in vitro ADME; details: in vitro in mouse, rat, dog, and human
Experimental: as §2

[7] = In vivo pharmacokinetics (Example 22); details: in vivo in mouse, rat and dog
Experimental: as §2

[8] = Half-life in nude mice (Example 22); format: in vivo; details: for half-life: mouse, in vivo, nude mice
Experimental: The in vitro and in vivo activity of compound 2 and two of its metabolites (compound 5 and compound 6) were explored and compared with the activity of camptothecin Top1 inhibitors. […] In human HCT-116 colon ca, HT-29 colon ca and NCI-H460 NSCLC cells the concentration response for compound 2, compound 5 and compound 6 were the same. […]. Compound 2 was administered intravenously on a QODx3 schedule for 2 cycles.

[9] = Body weight loss across the Example 22 xenograft studies; format: in vivo, mice; details: all dosages IV QODx3 for 2 cycles, except the high dosages in HCT-15 and NCI-H292
Experimental: as §2

[10] = system: Human NCI-H292 Lung Tumor Xenograft Model; test: Test D xenograft, Compound 2 free base; details: for Increase in Life Span (ILS) / Tumor Growth Delay T-C / Tumor Growth Inhibition T/C (tumor volume): qod × 3 for 2 cycles
[11] = system: Human H1299 Lung Tumor Xenograft Model; test: Test D xenograft, Compound 2 free base; details: qod × 3 for 2 cycles
[12] = system: Human MDA-MB-231 Breast Tumor Xenograft Model; test: Test D xenograft, Compound 2 free base; details: qod × 3 for 2 cycles
[13] = system: Human HCT-116 Colon Tumor Xenograft Model; test: Test D xenograft, Compound 2 and metabolites; details: 1.7 mg/kg/day IV, qod × 3 for 2 cycles

## CNCCn1c(=O)c2cc(OC)c(OC)cc2c2cnc3cc4c(cc3c21)OCO4 [Compound 2, 8,9-dimethoxy-2,3-methylenedioxy-5-[2-(N-methylamino)ethyl]-5H-dibenzo[c,h]1,6-naphthyridin-6-one]
[1]
  IC50: 0.2 nM
  IC90: 0.8 nM
[2]
  Increase in Life Span (ILS): 1.8x
  Tumor Growth Delay T-C: 21 days
  Tumor Growth Inhibition T/C (tumor volume): 14.1%
[3]; 1 mg/kg/day IV
  Increase in Life Span (ILS): 1.5x
  Tumor Growth Delay T-C: 15 days
  Tumor Growth Inhibition T/C (tumor volume): 22.0%
[3]; 1.36 mg/kg/day IV
  Increase in Life Span (ILS): 2.3x
  Tumor Growth Delay T-C: 35 days
  Tumor Growth Inhibition T/C (tumor volume): 13.4%
[3]; 1.7 mg/kg/day IV
  Increase in Life Span (ILS): 1.9x
  Tumor Growth Delay T-C: 26 days
  Tumor Growth Inhibition T/C (tumor volume): 16.7%
[4]; 1 mg/kg/day IV
  Increase in Life Span (ILS): 1.2x
  Tumor Growth Delay T-C: 10 days
  Tumor Growth Inhibition T/C (tumor volume): 52.5%
[4]; 1.36 mg/kg/day IV
  Increase in Life Span (ILS): 1.2x
  Tumor Growth Delay T-C: 10 days
  Tumor Growth Inhibition T/C (tumor volume): 52.2%
[4]; 1.7 mg/kg/day IV
  Increase in Life Span (ILS): 1.4x
  Tumor Growth Delay T-C: 17 days
  Tumor Growth Inhibition T/C (tumor volume): 25.9%
[5]
  metabolic stability: high metabolic stability
[6]
  partitioning into red blood cells: concentration dependent partitioning into red blood cells
[7]
  clearance: low-to-moderate clearance
  volume of distribution: large volume of distribution
[8]; ip
  half-life: 10.4 h
[8]; iv
  half-life: 5.1 h
[8]; po
  half-life: 3.6 h
[8]; tumor-bearing mice, compared with nude mice
  t1/2: longer
[9]
  maximum body weight loss: ≤ 20%
[10]; 1 mg/kg/day IV
  Increase in Life Span (ILS): 1.5x
  Tumor Growth Delay T-C: 18 days
  Tumor Growth Inhibition T/C (tumor volume): 29.4%
[10]; 1.36 mg/kg/day IV
  Increase in Life Span (ILS): 1.6x
  Tumor Growth Delay T-C: 21 days
  Tumor Growth Inhibition T/C (tumor volume): 25.2%
[10]; 1.7 mg/kg/day IV
  Increase in Life Span (ILS): 1.6x
  Tumor Growth Delay T-C: 21 days
  Tumor Growth Inhibition T/C (tumor volume): 15.2%
[10]; high dosage, IV QODx3 for 2 cycles
  maximum body weight loss: 20.9%
[11]; 1 mg/kg/day IV
  Increase in Life Span (ILS): 1.7x
  Tumor Growth Delay T-C: 20 days
  Tumor Growth Inhibition T/C (tumor volume): 22.6%
[11]; 1.36 mg/kg/day IV
  Increase in Life Span (ILS): 1.8x
  Tumor Growth Delay T-C: 24 days
  Tumor Growth Inhibition T/C (tumor volume): 13.2%
[11]; 1.7 mg/kg/day IV
  Increase in Life Span (ILS): 2.1x
  Tumor Growth Delay T-C: 34 days
  Tumor Growth Inhibition T/C (tumor volume): 8.7%
[12]; 1 mg/kg/day IV
  Increase in Life Span (ILS): 1.7x
  Tumor Growth Delay T-C: 21 days
  Tumor Growth Inhibition T/C (tumor volume): 30.7%
[12]; 1.36 mg/kg/day IV
  Increase in Life Span (ILS): >2.3x
  Tumor Growth Delay T-C: >47 days
  Tumor Growth Inhibition T/C (tumor volume): 8.6%
[12]; 1.7 mg/kg/day IV
  Increase in Life Span (ILS): 2.0x
  Tumor Growth Delay T-C: 35 days
  Tumor Growth Inhibition T/C (tumor volume): 17.7%
[13]
  Increase in Life Span (ILS): 1.9x
  Tumor Growth Delay T-C: 28 days
  Tumor Growth Inhibition T/C (tumor volume): 36.4%
